Source: publication PMC2680759, “Non-Invasive Molecular Imaging of Fibrosis Using a Collagen-Targeted Peptidomimetic of the Platelet Collagen Receptor Glycoprotein VI” (PLoS ONE, 2009)

Experiments:
in vivo = settings: rat, iv
Method: (§1) Two types of control animals were used: healthy rats, and healthy rats which had undergone a simple throracotomy (sham-operated). ^99mTc-biotin-collagelin blood kinetics and biodistribution were investigated by counting blood samples (taken from a jugular catheter) for 6 h after i.v. injection, and organs (extracted after sacrifice) 2 h after injection in a gamma-counter, together with aliquots of the injected preparation (CobraII, Packard, Meriden, USA). Ex vivo myocardial labeling and isotopic imaging were performed 4 weeks after the coronary ligature (or throracotomy), when the lesions had had the time to heal.

[1] = system: fibrotic myocardial infarction scar; type: in vivo, rat; settings: directly labeled tracer
Method: Myocardial infarction of the left ventricle was induced in rats as follows. Male Wistar rats (CERJ, France) were housed in a controlled environment and fed with a standard rat chow. Myocardial infarction of the left ventricle was induced by ligature of the left descending coronary artery performed under general anesthesia [1 mL.kg^−1 i.p. ketamine (Imalgene 500, Merial) and 0.5 mL.kg^−1 i.p. xylazine (Rompun, Bayer)] and positive pressure ventilation, as described. This protocol was performed under a permit from the French Veterinary Services Directorate.
as §1
For in vivo experiments, radiotracers (70 MBq) were administered i.v. to anesthetized animals (pentobarbital i.p. 6 mg/100 g BW, Ceva Santé Animale, France) within 2 h of radiolabeling. Scintigraphic images were obtained 0–2 h, 4 h, 6 h, 10 h and 24 h after injecting ^99mTc-streptavidin-biotin peptides and 0–3 h after injecting ^99mTc-biotinylated peptides. Planar and tomographic 1-h acquisitions were performed using a dedicated small animal γIMAGER system (Biospace Lab, Paris, France) equipped with 2 parallel low-energy high-resolution collimators (matrix 128×128, 15% energy window centered on 140 KeV). Tracer uptake in the left cardiac area was assessed visually. Two regions of interest were drawn on the scintigrams, over the heart and over the right lung. The mean activity (cpm) per pixel was determined in each region of interest. Then heart-to-lung activity ratios (HLR) were calculated on both planar and transversal tomographic images.

[2] = system: rat myocardial scar sections; assay: Ex vivo incubation of myocardial scar sections with radiotracers; settings: directly Tc-99m-labeled peptides, 120 MBq/ml RPMI, 2 h, p<0.05
Method: Rat aorta and rat myocardial scar sections were incubated in the presence of ^99mTc-biotin-collagelin, +/−9012 moAb, or ^99mTc-biotin-control peptide Pc (120 MBq/ml of RPMI) for 2 h. The tissues were then rinsed 5 times for periods of 1 minute, and exposed to the gamma-camera as well as to the instant imager for quantitative autoradiography (Instant Imager, Packard) for 15 h.

[3] = system: collagen fibers of the infarct scars; assay: Post mortem autoradiography of frozen myocardial sections; type: in vivo, rat; settings: directly Tc-99m-labeled peptides, frozen myocardial sections
Method: After sacrificing the animals, the heart was removed and frozen, then 20-micrometer thick myocardial sections were cut perpendicular to the short axis of the ventricles in a cryostat, and exposed in a radioimager for 16 h. According to calibration studies performed with activity standards of tissue-equivalent homogenates, 50 counts/mm^2 of ^99m Tc-labeled tracers corresponded to ∼210 kBq/mg in autoradiography. The myocardial sections used for autoradiography, and contiguous heart sections (5 µm) fixed in acetone (−20°C), were stained with hematoxylin-eosin, Masson's trichrome and picrosirius red to determine the location and extent of the fibrotic myocardial scarring.

murine laminin (murine) = murine laminin (murine) (UniProt P19137); assay: SPR; collagelin and laminin
[4] = molecular target: fibrillar type I collagen (Homo sapiens, UniProt P02452+P08123); assay: Solid phase assay on collagen-coated microtitration plates; type: binding; settings: n = 3
Sequence of fibrillar type I collagen (P02452 162-1218 limits assumed): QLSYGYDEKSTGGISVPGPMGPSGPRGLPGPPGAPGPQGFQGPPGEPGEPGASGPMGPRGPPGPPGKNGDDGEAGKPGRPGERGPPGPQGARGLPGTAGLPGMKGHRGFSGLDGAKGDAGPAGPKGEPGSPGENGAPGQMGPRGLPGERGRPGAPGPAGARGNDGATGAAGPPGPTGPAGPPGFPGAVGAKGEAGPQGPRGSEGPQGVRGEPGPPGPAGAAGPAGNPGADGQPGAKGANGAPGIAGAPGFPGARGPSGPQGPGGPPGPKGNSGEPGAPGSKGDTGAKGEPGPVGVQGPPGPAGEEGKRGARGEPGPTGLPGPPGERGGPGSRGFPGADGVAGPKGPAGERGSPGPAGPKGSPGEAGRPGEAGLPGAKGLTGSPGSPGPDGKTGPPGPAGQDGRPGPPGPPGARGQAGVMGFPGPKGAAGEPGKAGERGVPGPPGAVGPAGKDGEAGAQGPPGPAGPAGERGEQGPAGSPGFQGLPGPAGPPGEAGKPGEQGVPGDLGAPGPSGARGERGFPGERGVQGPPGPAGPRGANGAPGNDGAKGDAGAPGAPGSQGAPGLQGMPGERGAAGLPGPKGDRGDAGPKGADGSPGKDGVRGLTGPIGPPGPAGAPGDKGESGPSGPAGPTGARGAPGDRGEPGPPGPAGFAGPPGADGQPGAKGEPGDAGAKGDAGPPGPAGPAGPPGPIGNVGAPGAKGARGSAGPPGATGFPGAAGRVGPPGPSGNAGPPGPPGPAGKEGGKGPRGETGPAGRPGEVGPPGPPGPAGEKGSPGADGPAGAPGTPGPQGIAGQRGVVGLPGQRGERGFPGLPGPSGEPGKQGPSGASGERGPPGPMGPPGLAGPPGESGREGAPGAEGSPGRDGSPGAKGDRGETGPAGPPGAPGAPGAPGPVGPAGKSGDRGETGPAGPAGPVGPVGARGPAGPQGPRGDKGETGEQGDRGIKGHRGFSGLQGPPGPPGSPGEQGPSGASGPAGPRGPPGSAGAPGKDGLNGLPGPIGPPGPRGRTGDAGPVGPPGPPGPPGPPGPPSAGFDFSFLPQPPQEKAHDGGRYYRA
Sequence of fibrillar type I collagen (P08123 80-1119 limits assumed): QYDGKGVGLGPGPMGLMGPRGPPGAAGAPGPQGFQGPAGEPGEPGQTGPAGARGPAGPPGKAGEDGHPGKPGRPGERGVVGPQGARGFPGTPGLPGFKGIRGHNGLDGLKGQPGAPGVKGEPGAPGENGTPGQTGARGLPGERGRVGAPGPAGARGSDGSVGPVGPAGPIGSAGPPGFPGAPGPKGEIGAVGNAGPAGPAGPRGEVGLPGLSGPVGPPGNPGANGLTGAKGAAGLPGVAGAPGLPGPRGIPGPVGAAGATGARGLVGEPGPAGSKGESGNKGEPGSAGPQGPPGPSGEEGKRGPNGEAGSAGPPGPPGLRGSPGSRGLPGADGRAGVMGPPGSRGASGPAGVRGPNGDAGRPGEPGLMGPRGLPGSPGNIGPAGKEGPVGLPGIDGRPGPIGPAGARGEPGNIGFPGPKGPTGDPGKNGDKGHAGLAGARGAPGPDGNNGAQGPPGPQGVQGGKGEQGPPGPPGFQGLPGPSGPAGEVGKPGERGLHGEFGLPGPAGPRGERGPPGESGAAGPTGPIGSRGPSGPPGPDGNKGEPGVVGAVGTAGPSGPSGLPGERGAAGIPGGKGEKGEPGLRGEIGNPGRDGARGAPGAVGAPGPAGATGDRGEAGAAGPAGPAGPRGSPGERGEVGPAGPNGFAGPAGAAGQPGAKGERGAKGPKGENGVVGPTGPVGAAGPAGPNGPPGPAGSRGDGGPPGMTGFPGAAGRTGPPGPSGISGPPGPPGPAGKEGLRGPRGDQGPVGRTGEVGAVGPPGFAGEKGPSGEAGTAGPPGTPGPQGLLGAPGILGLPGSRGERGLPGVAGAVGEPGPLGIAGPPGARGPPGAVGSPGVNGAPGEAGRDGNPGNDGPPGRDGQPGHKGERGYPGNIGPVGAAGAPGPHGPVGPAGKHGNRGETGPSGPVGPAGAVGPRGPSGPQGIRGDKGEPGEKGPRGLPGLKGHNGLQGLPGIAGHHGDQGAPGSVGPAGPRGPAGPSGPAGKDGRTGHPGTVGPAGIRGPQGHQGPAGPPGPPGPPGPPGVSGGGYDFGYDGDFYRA
Method: Biotin-peptides (50 µg.mL^−1) were incubated on microtitration wells, coated with 1 µg of type-I collagen, convulxin, collagen related peptides, bovine fibrinogen, human fibronectin, rat vitronectin, murine laminin or bovine serum albumin. Bound peptides were detected using HRP-coupled extravidin and the HRP substrate O-phenyl-dianisidine.

[5] = system: collagen in sections of rat aorta and tail tendon; assay: Histochemical analysis of rat aorta and tail tendon sections; settings: frozen sections of rat aorta and tail tendon, biotin-peptide 200 µg/mL, HRP-coupled streptavidin
Method: Sections were counter-stained with hematoxylin-eosin (Merck). Collagen was stained using picrosirius red. Sections ([…]) of rat tail tendon were processed as above.

9O12.2 IgG = assay: SPR, 9O12.2 IgG injected over immobilized B-collagelin; type: binding
Method: 9O12.2 IgG was injected over biotin-peptides coupled to an SA-sensorchip in a Biacore 2000 instrument. […] In some experiments, the peptide was reduced by DTT on the sensor chip before the IgG was injected. Competition experiments were performed by mixing the IgG with recombinant soluble GPVI (25 µg.mL^−1). Collagen binding to the peptide was analyzed by injecting type-I collagen (200 µg.mL^−1) onto the peptide-coated sensorchip. Conversely, biotin-peptides (125, 250, 500 and 1000 µg.mL^−1) were perfused over fibrillar collagen immobilized on a CM5-sensorchip.

## CSCC[C@@H]1NC(=O)[C@H](C(C)C)NC(=O)[C@H](CCCNC(=N)N)NC(=O)CNC(=O)[C@@H]2CCCN2C(=O)[C@@H](NC(=O)CNC(=O)[C@H](CO)NC(=O)CNC(=O)[C@H](CO)NC(=O)CCCC[C@@H]2SC[C@@H]3NC(=O)N[C@@H]32)CSSC[C@@H](C(N)=O)NC(=O)[C@@H]2CCCN2C(=O)CNC(=O)[C@H](CCC(=O)O)NC(=O)[C@H](CC(=O)O)NC(=O)[C@H](CC(=O)O)NC(=O)CNC(=O)[C@H](CC(C)C)NC(=O)[C@H](Cc2c[nH]cn2)NC(=O)[C@H](CC(C)C)NC(=O)CNC(=O)[C@H](Cc2c[nH]cn2)NC1=O [^99mTc-collagelin, metal not drawn]
In vivo
  Blood clearance half life: 5 ± 0.5 min
In vivo; 1 nmol, total radioactivity
  tissue uptake at 2 h: 0.36 %ID/g
[1]; n = 6
  Tracer uptake in the cardiac area, sham-operated rats: No tracer uptake
[1]; planar and SPECT images two hours after injection, all but one of the rats, n = 8
  Probe uptake in the cardiac area, rats with MI scars: significant uptake
[2]
  Ex vivo uptake in scarred tissue of myocardial sections: accumulated in the scarred tissue
[3]
  Autoradiographic labeling of the scar: coincided with the collagen fibers of the scars

## B-collagelin (collagelin conjugated with biotin) (peptide)
Murine laminin (murine)
  Kd: 18.3 µM

## SGSGCPGRVMHGLHLGDDEGPC (disulfide) [B-collagelin]
[4]; peptide 50 µg/mL, HRP-coupled extravidin detection
  Binding to collagen-coated plates: bound
[5]
  Histochemical staining of tissue collagen: Positive and specific brown staining
9O12.2 IgG; read-out: KD of 9O12.2 IgG binding to immobilized B-collagelin, SPR, Biacore 2000, biotin-peptide on SA-sensorchip, IgG 1.25 to 10 µg/mL, KD = koff/kon
  Kd: 1 µM

B1: GPVI-Fc: soluble recombinant GPVI, extracellular part of GPVI fused to the IgG Fc domain (protein)
chain: QSGPLPKPSLQALPSSLVPLEKPVTLRCQGPPGVDLYRLEKLSSSRYQDQAVLFIPAMKRSLAGRYRCSYQNGSLWSLPSDQLELVATGVFAKPSLSAQPGPAVSSGGDVTLQCQTRYGFDQFALYKEGDPAPYKNPERWYRASFPIITVTAAHSGTYRCYSFSSRDPYLWSAPSDPLELVVTGTSVTPSRLPTEPPSPVAEFSEATAELTVSFTNEVFTTETSRSITASPKESDSPAGPARQYYTK
modifications: left off: Fc (IgG), end not stated, kept
notes: soluble recombinant GPVI, extracellular part of GPVI fused to the IgG Fc domain
[4]; competitor 50 µg/mL mixed with B-collagelin 50 µg/mL
  Inhibition of B-collagelin binding to collagen-coated plates: completely inhibited
9O12.2 IgG; SPR competition, IgG 5 µg/ml mixed with recombinant soluble GPVI 25 µg/ml
  Effect on binding of 9O12.2 IgG to collagelin: inhibited
